Results on three compounds are retold here after patent US20070105788A1, “Azithromycin for treatment of granulomatous rosacea” (priority 2005, published 2007).

This test has as its system granulomatous rosacea. In words: Case reports: treatment of patients with granulomatous rosacea. The following applies: for clinical response of granulomatous rosacea at follow-up: two months later. It is filed as in vivo, human. The protocol:
A patient presented with severe inflammatory diffuse facial granulomatous rosacea. The condition had been present for 6 years.
They were started on oral azithromycin 500 mg daily dose together with an estrogenic hormone, norgestimate/ethinyl estradiol (ORTHO TRI-CYCLEN®, Ortho-McNeil Pharmaceutical, Raritan, N.J.). […] Treatment was continued with a follow-up examination expected in another 6 to 8 weeks.
A patient presented with complaints of a “facial rash”. […] They were started on oral cephalexin. […] Treatment with dicloxicillin was initiated.
Oral azithromycin at a dosage of 500 mg daily was started, together with daily topical application of a sodium sulfacetamide 10% with sulfur 5% cream and a metronidazole cream.
A person presented with a facial rash.
Treatment was initiated with a variety of topical medications, including metronidazole gel, Elidel® (pimecrolimus, Novartis Pharmaceuticals Corp., New York, N.Y.), 2.4% hydrocortisone, and desonide cream.
The next therapy tried was oral doxycycline 100 mg twice daily. […] The patient was then started on Accutane® (Hoffman-LaRoche Inc., Nutley, N.J.) at an initial dosage of 20 mg per day, which was subsequently raised to 40 mg per day and then to 60 mg per day.
Treatment was subsequently initiated with azithromycin as the sole therapy, administered orally at a dosage of 250 mg daily for three weeks.

The structures appear in SMILES notation.

In the case of `CC[C@H]1OC(=O)[C@H](C)[C@@H](O[C@H]2C[C@@](C)(OC)[C@@H](O)[C@H](C)O2)[C@H](C)[C@@H](O[C@@H]2O[C@H](C)C[C@H](N(C)C)[C@H]2O)[C@](C)(O)C[C@@H](C)CN(C)[C@H](C)[C@@H](O)[C@]1(C)O` [azithromycin], the “clinical response of granulomatous rosacea at follow-up” value is, setting by setting: (Example 1, azithromycin reduced to 500 mg every other day plus daily topical azaleic acid) “remained clear”; (Example 2, azithromycin decreased to 500 mg every other day, topicals continued) “no evidence of residual rosacea”. In addition, the “clinical response of granulomatous rosacea” value is, setting by setting: (Example 1, oral azithromycin 500 mg daily together with norgestimate/ethinyl estradiol, 9 weeks after initiation) “greatly improved with only minimal residual facial erythema and no residual inflammatory lesions”; (Example 2, oral azithromycin 500 mg daily with topical sodium sulfacetamide 10%/sulfur 5% cream and metronidazole cream, six weeks after initiation) “minimally perceptible residual erythema and papulation”; (Example 3, azithromycin as sole therapy, orally 250 mg daily for three weeks) “remarkable improvement”. Further, the “recurrence of granulomatous rosacea” value (Example 3, following cessation of azithromycin therapy (250 mg daily for three weeks)) is “has not had a recurrence”. The “efficacy on signs and symptoms of granulomatous rosacea (general statement)” value (administered systemically for a period of several weeks or more) is “effective”.
As for `Cc1onc(-c2c(Cl)cccc2Cl)c1C(=O)N[C@@H]1C(=O)N2[C@@H]1SC(C)(C)[C@@H]2C(=O)O` [dicloxicillin], the “clinical response of facial rash (later diagnosed granulomatous rosacea)” value (Example 2, dicloxicillin, six weeks later) is recorded as “persistent severe to worsening involvement”.
Regarding `CC1=C(C(=O)O)N2C(=O)[C@@H](NC(=O)[C@H](N)c3ccccc3)[C@H]2SC1` [cephalexin], for the setting “Example 2, patient, oral cephalexin, one month later”, the “clinical response of facial rash (later diagnosed granulomatous rosacea)” value is “worsening pustules and tender nodules”.
